Measured values as given in patent US8076487B2, “Pyridone derivative and herbicide” (Kumiai Chemical Industry Co., Ltd., priority 2006, dated 2011).

Legend:
Type in all cases: in vivo
[1] = tested on: Japanese bulrush (Scirpus juncoides Roxb.); test: Test Example 1: herbicidal effect by soil application to paddy field; details: paddy field soil application; active ingredient 1,000 g per 1 hectare; wettable powder added dropwise to water surface the day after sowing; examined on the 21st day after application
Summary of the method: (§1)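 Plants were sown in flooded (3 cm) paddy soil and evaluated for herbicidal effect 21 days after soil application in a greenhouse.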

[2] = tested on: early watergrass (Echinochloa oryzicola Vasing); test: as above; details: paddy field soil application; active ingredient 1,000 g per 1 hectare; wettable powder added dropwise to water surface the day after sowing; examined on the 21st day after application
Summary of the method: as §1

[3] = tested on: heartshape false pickerelweed (Monochoria vaginalis (Burm.f.) C.Presl); test: as above; details: paddy field soil application; active ingredient 1,000 g per 1 hectare; wettable powder added dropwise to water surface the day after sowing; examined on the 21st day after application
Summary of the method: as §1

[4] = tested on: barnyardgrass (Echinochloa crus-galli (L.) P. Beauv. var. crus-galli); test: Test Example 2: herbicidal effect by soil application to upland field; details: soil surface spray, upland field soil, 1,000 g active ingredient per hectare, 21st day after application
Summary of the method: (§2)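 In this soil-application test, sown and soil-covered pots are sprayed uniformly with the formulation diluted in water, giving 1,000 g of active ingredient per ha in a volume of 1,000 L per ha. Plants then grow in a greenhouse for 21 days before herbicidal scoring by a standard scale.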

[5] = tested on: green foxtail (Setaria viridis (L.) P. Beauv.); test: as above; details: soil surface spray, upland field soil, 1,000 g active ingredient per hectare, 21st day after application
Summary of the method: as §2

[6] = tested on: slender amaranth (Amaranthus viridis L.); test: as above; details: soil surface spray, upland field soil, 1,000 g active ingredient per hectare, 21st day after application
Summary of the method: as §2

[7] = tested on: velvetleaf (Abutilon theophrasti medicus); test: as above; details: soil surface spray, upland field soil, 1,000 g active ingredient per hectare, 21st day after application
Summary of the method: as §2

[8] = tested on: barnyardgrass (Echinochloa crus-galli (L.) P. Beauv. var. crus-galli); test: Test Example 3: herbicidal effect by application to upland field (foliage treatment); details: foliage treatment, 1,000 g active ingredient per 1 hectare, 14th day after application, greenhouse
Summary of the method: (§3)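 Seeds went into pots of field soil and grew under glass for two weeks. The whole plant was then sprayed from above with diluted wettable powder delivering 1,000 g/ha of active ingredient. Plants stayed in the greenhouse, and injury was graded against a standard 14 days after spraying.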

[9] = tested on: green foxtail (Setaria viridis (L.) P. Beauv.); test: as above; details: foliage treatment, 1,000 g active ingredient per 1 hectare, 14th day after application, greenhouse
Summary of the method: as §3

[10] = tested on: slender amaranth (Amaranthus viridis L.); test: as above; details: foliage treatment, 1,000 g active ingredient per 1 hectare, 14th day after application, greenhouse
Summary of the method: as §3

[11] = tested on: velvetleaf (Abutilon theophrasti medicus); test: as above; details: foliage treatment, 1,000 g active ingredient per 1 hectare, 14th day after application, greenhouse
Summary of the method: as §3

COCCCn1c(C(F)(F)F)ccc(C(=O)c2cnn(C)c2O)c1=O [IV-47]
herbicidal effect, Scirpus juncoides Roxb. [1]: 5 (90% or more of herbicidal effect and crop phytotoxicity)
herbicidal effect, Echinochloa oryzicola Vasing [2]: 5 (90% or more of herbicidal effect and crop phytotoxicity)
herbicidal effect, Monochoria vaginalis (Burm. f.) C. Presl [3]: 5 (90% or more of herbicidal effect and crop phytotoxicity)
herbicidal effect (index), Barnyardgrass [4]: 4 (70 to less than 90% of herbicidal effect and crop phytotoxicity)
herbicidal effect (index), Green Foxtail [5]: 5 (90% or more of herbicidal effect and crop phytotoxicity)
herbicidal effect (index), Slender Amaranth [6]: 5 (90% or more of herbicidal effect and crop phytotoxicity)
herbicidal effect (index), Velvetleaf [7]: 5 (90% or more of herbicidal effect and crop phytotoxicity)
herbicidal effect, Barnyardgrass [8]: 4 (70 to less than 90% of herbicidal effect and crop phytotoxicity)
herbicidal effect, Green Foxtail [9]: 5 (90% or more of herbicidal effect and crop phytotoxicity)
herbicidal effect, Slender Amaranth [10]: 5 (90% or more of herbicidal effect and crop phytotoxicity)
herbicidal effect, Velvetleaf [11]: 5 (90% or more of herbicidal effect and crop phytotoxicity)

COCCCn1c(C(F)(F)F)ccc(C(=O)c2cnn(C)c2OC(C)=O)c1=O [IV-48]
herbicidal effect, Scirpus juncoides Roxb. [1]: 5 (90% or more of herbicidal effect and crop phytotoxicity)
herbicidal effect, Echinochloa oryzicola Vasing [2]: 5 (90% or more of herbicidal effect and crop phytotoxicity)
herbicidal effect, Monochoria vaginalis (Burm. f.) C. Presl [3]: 5 (90% or more of herbicidal effect and crop phytotoxicity)
herbicidal effect (index), Barnyardgrass [4]: 4 (70 to less than 90% of herbicidal effect and crop phytotoxicity)
herbicidal effect (index), Green Foxtail [5]: 5 (90% or more of herbicidal effect and crop phytotoxicity)
herbicidal effect (index), Slender Amaranth [6]: 5 (90% or more of herbicidal effect and crop phytotoxicity)
herbicidal effect (index), Velvetleaf [7]: 5 (90% or more of herbicidal effect and crop phytotoxicity)
herbicidal effect, Barnyardgrass [8]: 5 (90% or more of herbicidal effect and crop phytotoxicity)
herbicidal effect, Green Foxtail [9]: 4 (70 to less than 90% of herbicidal effect and crop phytotoxicity)
herbicidal effect, Slender Amaranth [10]: 5 (90% or more of herbicidal effect and crop phytotoxicity)
herbicidal effect, Velvetleaf [11]: 5 (90% or more of herbicidal effect and crop phytotoxicity)

Cn1ncc(C(=O)c2ccc(C(F)(F)F)n(CCS(C)(=O)=O)c2=O)c1O [IV-54]
herbicidal effect, Scirpus juncoides Roxb. [1]: 4 (70 to less than 90% of herbicidal effect and crop phytotoxicity)
herbicidal effect, Echinochloa oryzicola Vasing [2]: 5 (90% or more of herbicidal effect and crop phytotoxicity)
herbicidal effect, Monochoria vaginalis (Burm. f.) C. Presl [3]: 4 (70 to less than 90% of herbicidal effect and crop phytotoxicity)
herbicidal effect (index), Barnyardgrass [4]: 5 (90% or more of herbicidal effect and crop phytotoxicity)
herbicidal effect (index), Green Foxtail [5]: 5 (90% or more of herbicidal effect and crop phytotoxicity)
herbicidal effect (index), Slender Amaranth [6]: 5 (90% or more of herbicidal effect and crop phytotoxicity)
herbicidal effect (index), Velvetleaf [7]: 5 (90% or more of herbicidal effect and crop phytotoxicity)
herbicidal effect, Barnyardgrass [8]: 5 (90% or more of herbicidal effect and crop phytotoxicity)
herbicidal effect, Green Foxtail [9]: 5 (90% or more of herbicidal effect and crop phytotoxicity)
herbicidal effect, Slender Amaranth [10]: 5 (90% or more of herbicidal effect and crop phytotoxicity)
herbicidal effect, Velvetleaf [11]: 5 (90% or more of herbicidal effect and crop phytotoxicity)

Cn1ncc(C(=O)c2ccc(C(F)(F)F)n(-c3ccccc3)c2=O)c1O [IV-62]
herbicidal effect, Scirpus juncoides Roxb. [1]: 5 (90% or more of herbicidal effect and crop phytotoxicity)
herbicidal effect, Echinochloa oryzicola Vasing [2]: 5 (90% or more of herbicidal effect and crop phytotoxicity)
herbicidal effect, Monochoria vaginalis (Burm. f.) C. Presl [3]: 5 (90% or more of herbicidal effect and crop phytotoxicity)
herbicidal effect (index), Barnyardgrass [4]: 5 (90% or more of herbicidal effect and crop phytotoxicity)
herbicidal effect (index), Green Foxtail [5]: 5 (90% or more of herbicidal effect and crop phytotoxicity)
herbicidal effect (index), Slender Amaranth [6]: 5 (90% or more of herbicidal effect and crop phytotoxicity)
herbicidal effect (index), Velvetleaf [7]: 5 (90% or more of herbicidal effect and crop phytotoxicity)
herbicidal effect, Barnyardgrass [8]: 5 (90% or more of herbicidal effect and crop phytotoxicity)
herbicidal effect, Green Foxtail [9]: 5 (90% or more of herbicidal effect and crop phytotoxicity)
herbicidal effect, Slender Amaranth [10]: 5 (90% or more of herbicidal effect and crop phytotoxicity)
herbicidal effect, Velvetleaf [11]: 5 (90% or more of herbicidal effect and crop phytotoxicity)

Cn1ncc(C(=O)c2ccc(C(F)(F)F)n(-c3cc(F)cc(F)c3)c2=O)c1O [IV-80]
herbicidal effect, Scirpus juncoides Roxb. [1]: 5 (90% or more of herbicidal effect and crop phytotoxicity)
herbicidal effect, Echinochloa oryzicola Vasing [2]: 5 (90% or more of herbicidal effect and crop phytotoxicity)
herbicidal effect, Monochoria vaginalis (Burm. f.) C. Presl [3]: 5 (90% or more of herbicidal effect and crop phytotoxicity)
herbicidal effect (index), Barnyardgrass [4]: 5 (90% or more of herbicidal effect and crop phytotoxicity)
herbicidal effect (index), Green Foxtail [5]: 5 (90% or more of herbicidal effect and crop phytotoxicity)
herbicidal effect (index), Slender Amaranth [6]: 5 (90% or more of herbicidal effect and crop phytotoxicity)
herbicidal effect (index), Velvetleaf [7]: 5 (90% or more of herbicidal effect and crop phytotoxicity)
herbicidal effect, Barnyardgrass [8]: 5 (90% or more of herbicidal effect and crop phytotoxicity)
herbicidal effect, Green Foxtail [9]: 5 (90% or more of herbicidal effect and crop phytotoxicity)
herbicidal effect, Slender Amaranth [10]: 5 (90% or more of herbicidal effect and crop phytotoxicity)
herbicidal effect, Velvetleaf [11]: 5 (90% or more of herbicidal effect and crop phytotoxicity)

Cc1nn(C)c(O)c1C(=O)c1ccc(C(F)(F)F)n(-c2cc(F)cc(F)c2)c1=O [IV-81]
herbicidal effect, Scirpus juncoides Roxb. [1]: 3 (50 to less than 70% of herbicidal effect and crop phytotoxicity)
herbicidal effect, Echinochloa oryzicola Vasing [2]: 5 (90% or more of herbicidal effect and crop phytotoxicity)
herbicidal effect, Monochoria vaginalis (Burm. f.) C. Presl [3]: 5 (90% or more of herbicidal effect and crop phytotoxicity)
herbicidal effect (index), Barnyardgrass [4]: 5 (90% or more of herbicidal effect and crop phytotoxicity)
herbicidal effect (index), Green Foxtail [5]: 5 (90% or more of herbicidal effect and crop phytotoxicity)
herbicidal effect (index), Slender Amaranth [6]: 5 (90% or more of herbicidal effect and crop phytotoxicity)
herbicidal effect (index), Velvetleaf [7]: 5 (90% or more of herbicidal effect and crop phytotoxicity)
herbicidal effect, Barnyardgrass [8]: 4 (70 to less than 90% of herbicidal effect and crop phytotoxicity)
herbicidal effect, Green Foxtail [9]: 4 (70 to less than 90% of herbicidal effect and crop phytotoxicity)
herbicidal effect, Slender Amaranth [10]: 5 (90% or more of herbicidal effect and crop phytotoxicity)
herbicidal effect, Velvetleaf [11]: 5 (90% or more of herbicidal effect and crop phytotoxicity)

Cn1ncc(C(=O)c2ccc(C(F)(F)F)n(-c3cc(F)ccc3F)c2=O)c1O [IV-83]
herbicidal effect, Scirpus juncoides Roxb. [1]: 5 (90% or more of herbicidal effect and crop phytotoxicity)
herbicidal effect, Echinochloa oryzicola Vasing [2]: 5 (90% or more of herbicidal effect and crop phytotoxicity)
herbicidal effect, Monochoria vaginalis (Burm. f.) C. Presl [3]: 5 (90% or more of herbicidal effect and crop phytotoxicity)
herbicidal effect (index), Barnyardgrass [4]: 5 (90% or more of herbicidal effect and crop phytotoxicity)
herbicidal effect (index), Green Foxtail [5]: 5 (90% or more of herbicidal effect and crop phytotoxicity)
herbicidal effect (index), Slender Amaranth [6]: 5 (90% or more of herbicidal effect and crop phytotoxicity)
herbicidal effect (index), Velvetleaf [7]: 5 (90% or more of herbicidal effect and crop phytotoxicity)
herbicidal effect, Barnyardgrass [8]: 5 (90% or more of herbicidal effect and crop phytotoxicity)
herbicidal effect, Green Foxtail [9]: 5 (90% or more of herbicidal effect and crop phytotoxicity)
herbicidal effect, Slender Amaranth [10]: 5 (90% or more of herbicidal effect and crop phytotoxicity)
herbicidal effect, Velvetleaf [11]: 5 (90% or more of herbicidal effect and crop phytotoxicity)
